US20240043427A1 (Gilead Sciences, Inc., priority 2020, published 2024)

Columns and labels:
[1] = target: T1, CD73 (Homo sapiens (Human), UniProt P21589); assay: MDA-MB-231 Cell Based CD73 Activity Assay (DMEM); conditions: MDA-MB-231-GFP cells, DMEM medium with 10% human plasma, 200 uM AMP
[2] = target: T1, CD73; format: biochemical; conditions: 1 mM NaH2PO4 in enzyme buffer, CD73 0.3 nM, AMP 15 uM

T1 sequence (P21589 27-574): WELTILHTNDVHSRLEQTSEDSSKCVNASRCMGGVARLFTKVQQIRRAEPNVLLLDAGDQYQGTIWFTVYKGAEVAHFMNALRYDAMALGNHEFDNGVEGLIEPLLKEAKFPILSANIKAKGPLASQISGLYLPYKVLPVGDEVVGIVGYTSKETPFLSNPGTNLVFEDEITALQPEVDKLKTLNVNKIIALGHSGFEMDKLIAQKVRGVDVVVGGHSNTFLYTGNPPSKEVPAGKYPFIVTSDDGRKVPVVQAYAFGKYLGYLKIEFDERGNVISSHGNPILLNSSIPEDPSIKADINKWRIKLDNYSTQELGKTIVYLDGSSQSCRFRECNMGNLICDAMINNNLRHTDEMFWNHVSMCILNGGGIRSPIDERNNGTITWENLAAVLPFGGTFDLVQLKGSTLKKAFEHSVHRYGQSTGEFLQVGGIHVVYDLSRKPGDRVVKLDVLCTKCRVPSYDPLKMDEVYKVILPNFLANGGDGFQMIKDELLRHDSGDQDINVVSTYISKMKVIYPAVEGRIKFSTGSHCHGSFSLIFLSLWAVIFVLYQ

EC50 [1] [nM] | IC50 [2] [nM] | SMILES
249 | 46.1 | O=c1[nH]cc(-c2cc(N3CCC(c4cccc(C(F)(F)F)c4)C3)c3nccn3n2)c(=O)[nH]1 (centres unmarked) [Example 249, 5-(8-(3-(3-(trifluoromethyl)phenyl)pyrrolidin-1-yl)imidazo[1,2-b]pyridazin-6-yl)pyrimidine-2,4(1H,3H)-dione]
687 | 110 | O=c1[nH]cc(-c2cc(N3CCC(c4ccccc4C(F)(F)F)C3)c3nccn3n2)c(=O)[nH]1 (centres unmarked) [Example 250, 5-(8-(3-(2-(trifluoromethyl)phenyl)pyrrolidin-1-yl)imidazo[1,2-b]pyridazin-6-yl)pyrimidine-2,4(1H,3H)-dione]
125 | 17.6 | COc1ccc(C2CN(c3cc(-c4c[nH]c(=O)[nH]c4=O)nn4ccnc34)C2)cc1 [Example 251, 5-(8-(3-(4-methoxyphenyl)azetidin-1-yl)imidazo[1,2-b]pyridazin-6-yl)pyrimidine-2,4(1H,3H)-dione]
1240 | 174 | O=c1[nH]cc(-c2cc(N3CC(c4ccc(OC(F)(F)F)cc4)C3)c3nccn3n2)c(=O)[nH]1 [Example 252, 5-(8-(3-(4-(trifluoromethoxy)phenyl)azetidin-1-yl)imidazo[1,2-b]pyridazin-6-yl)pyrimidine-2,4(1H,3H)-dione]
160 | 20 | O=c1[nH]cc(-c2cc(N3CCC(F)(c4ccccc4)C3)c3nccn3n2)c(=O)[nH]1 (centres unmarked) [Example 253, 5-(8-(3-fluoro-3-phenylpyrrolidin-1-yl)imidazo[1,2-b]pyridazin-6-yl)pyrimidine-2,4(1H,3H)-dione]
136 | 26.6 | O=c1[nH]cc(-c2cc(N3CCC4CC43)c3nccn3n2)c(=O)[nH]1 (centres unmarked) [Example 254, 5-(8-(2-azabicyclo[3.1.0]hexan-2-yl)imidazo[1,2-b]pyridazin-6-yl)pyrimidine-2,4(1H,3H)-dione]
113 | 17.5 | O=c1[nH]cc(-c2cc(N3CCC(F)(c4ccc(F)cc4)C3)c3nccn3n2)c(=O)[nH]1 (centres unmarked) [Example 255, 5-(8-(3-fluoro-3-(4-fluorophenyl)pyrrolidin-1-yl)imidazo[1,2-b]pyridazin-6-yl)pyrimidine-2,4(1H,3H)-dione]
185 | 43.1 | O=c1[nH]cc(-c2cc(N3CCC(F)(c4ccc(C(F)(F)F)cc4)C3)c3nccn3n2)c(=O)[nH]1 (centres unmarked) [Example 256, 5-(8-(3-fluoro-3-(4-(trifluoromethyl)phenyl)pyrrolidin-1-yl)imidazo[1,2-b]pyridazin-6-yl)pyrimidine-2,4(1H,3H)-dione]
103 | 51.7 | O=c1[nH]cc(-c2cc(N3CCC4CCC43)c3nccn3n2)c(=O)[nH]1 (centres unmarked) [Example 257, 5-(8-(2-azabicyclo[3.2.0]heptan-2-yl)imidazo[1,2-b]pyridazin-6-yl)pyrimidine-2,4(1H,3H)-dione]
106 | 52.4 | O=c1[nH]cc(-c2cc(N3CC(c4ccc(F)cc4)C3)c3nccn3n2)c(=O)[nH]1 [Example 258, 5-(8-(3-(4-fluorophenyl)azetidin-1-yl)imidazo[1,2-b]pyridazin-6-yl)pyrimidine-2,4(1H,3H)-dione]
80.7 | 14.7 | O=c1[nH]cc(-c2cc(N3CC(F)(c4ccccc4)C3)c3nccn3n2)c(=O)[nH]1 [Example 259, 5-(8-(3-fluoro-3-phenylazetidin-1-yl)imidazo[1,2-b]pyridazin-6-yl)pyrimidine-2,4(1H,3H)-dione]
963 | > 250 | O=c1[nH]cc(-c2cc(N3CCC4(CC4)C(F)(F)C3)c3nccn3n2)c(=O)[nH]1 [Example 260, 5-(8-(4,4-difluoro-6-azaspiro[2.5]octan-6-yl)imidazo[1,2-b]pyridazin-6-yl)pyrimidine-2,4(1H,3H)-dione]
139 | 13.9 | COC(=O)c1ccc(C2CN(c3cc(-c4c[nH]c(=O)[nH]c4=O)nn4ccnc34)C2)cc1 [Example 261, Methyl 4-(1-(6-(2,4-dioxo-1,2,3,4-tetrahydropyrimidin-5-yl)imidazo[1,2-b]pyridazin-8-yl)azetidin-3-yl)benzoate]
